This is an account of results in patent US8933295B2, “Identifying agents to treat alzheimer's disease-related decreased sorting behavior by administration to a triple transgenic mouse expressing mutant forms of APP, presenilin or tau” (Janssen Biotech, Inc., priority 2008, dated 2015).

The test system of the assay is 3×Tg-AD mice. The experiment in a line: Sorting Activity Test (SAT), bedding sorting score, tricyclic antidepressants. The format is in vivo, mouse. Particulars: for mean sorting score over the course of the study: 6 cages x 7 weeks; for mean sorting score over the course of the study / mean sorting score: score 0-4; for mean sorting score: day 7 after bedding change, 6 cages, dosed once daily Mon-Fri. The text has this:
The 3×Tg-AD mice developed by LaFerla et al., at the University of California at Irvine (Neuron 2003b) were used in the study. These mice harbor mutations in three different genes: the β-amyloid precursor protein (APPSweKM→NL), presenilin-1 (PS1M146V) and tau (P301L). […] Intracellular A-beta peptide immunoreactivity has been reported to appear by as early as three months of age and extracellular A-beta deposits in evidence between six and 12 months of age (Oddo et al., 2003a, 2003b). In the cohort of mice used in the present studies, these hallmarks of AD were not observed until 19 months of age by immunohistochemical methods.
Triple transgenic (3×Tg-AD) mice and corresponding non-transgenic control mice were weaned and group housed four (4) mice per cage in large static microisolator caging composed of a tinted polycarbonate cage, stainless steel lid, and polycarbonate filtered top at Ace Animals, Inc. Mice were fed 5% Fat Purina Autoclavable Breeder Diet (Item #RHI5R24CGP) and provided reverse osmosis chlorinated water ad libitum within a barrier environment in an environmentally controlled facility (22° C., 40-60% relative humidity) with a 12:12-hour light: dark cycle. Health status reports certify that all animals were free of known viral, bacterial, and parasitic pathogens.
The unique factor within this colony was the use of a combination corncob and papered bedding (AlphaCobb® cat #ALPHA4B, Animal Specialties and Provisions, Quakertown, Pa.). The mice were 8 weeks of age at the start of the study.
Mice were housed 2 per cage, 6 cages per group: Non-transgenic control, untreated, 3×Tg-AD, untreated, 3×Tg-AD, Desipramine, 30 mg/kg, and 3×Tg-AD, Imipramine. All mice were approximately two months of age at the start of the study. Mice were dosed once daily, Monday through Friday with test article. Cages were photographed weekly on Day 7, and cage bedding was changed once per week after photographs were taken.
In order to quantify the sorting behavior of the mice in this study, a scoring system was devised. Before the start of the initial study the mice were observed. It was evident that the sorting behavior was not an “all or nothing” phenomenon, but rather existed in degrees. After observing the cages for some time, scoring criteria were established.
In these cages, the two types of bedding were equally mixed throughout the cage. There was no area where one bedding type was more concentrated.
In these cages, a small area of white bedding was seen, usually piled in a corner. The two types of bedding were equally mixed throughout the rest of the cage.
A score of 2 was given to cages when the white area of bedding was more pronounced, yet the bedding throughout the rest of the cage was still mixed.
A score of 3 was given to cages when the white area was very clearly defined, and very little white bedding was left mixed with the Alpha Cobb.
A score of 4 was given to cages when the two types of bedding were almost completely separated from each other.
The degree of sorting at the end of each 7 day period (before the cages were changed) was scored using this system.
Using the scoring system devised and making daily observations of the cages, the behavior patterns of the non-transgenic control mice could be clearly distinguished from the 3×Tg-AD mice within a matter of a couple days, but was most prominent after Day 3. At Day 7 before each bedding change, the bedding of each cage was digitally photographed and scored. Table 1 provides the mean score and standard deviation (SD) for each group of mice for each week observed.
Data was analyzed using GraphPad Prism software with ANOVA one-way analysis of variance followed by Dunnett's multiple comparison test. All groups (6 cages×7 weeks) were compared to untreated 3×TgAD group. Significance was defined as p<0.05.

Each structure is given as a SMILES string. Entries after “also recorded” stand apart in the source; their conditions may differ.

Consider `CNCCCN1c2ccccc2CCc2ccccc21` [DESIPRAMINE, Desipramine], for which the “mean sorting score over the course of the study” value amounted to 0.67. Moreover, for the setting “treated 3×Tg-AD mice compared to untreated Tg mice”, the “sorting behavior, in words” value was “regained some of the behavior; also recorded: greater effect than imipramine”. For the same molecule, for the setting “week 1”, the mean sorting score is 0.00. Moreover, the mean sorting score (week 2) came out at 0.50. Besides, the mean sorting score (week 3) is 1.17. The mean sorting score (week 4) was 0.83. For the setting “week 5”, the mean sorting score is given as 0.83. For the setting “week 6”, the mean sorting score is listed as 0.50. In addition, the mean sorting score (week 7) is reported as 0.83.
Regarding `CN(C)CCCN1c2ccccc2CCc2ccccc21` [IMIPRAMINE, Imipramine], the “mean sorting score over the course of the study” value is recorded as 0.31. Besides, the mean sorting score (week 1) is 0.00. Further, the mean sorting score (week 2) was determined as 0.67. In addition, the mean sorting score (week 3) came out at 0.17. Further, the mean sorting score (week 4) is 0.33. Also, the mean sorting score (week 5) is listed as 0.33. Also, the mean sorting score (week 6) is listed as 0.33. Further, the mean sorting score (week 7) amounted to 0.33.
